Values of other authors in paper PMC3010531 (Journal of the American Chemical Society, 2010).

What was measured:
[1] = target: mH2A1.1 (Homo sapiens, UniProt O75367); conditions: ref 13c
[2] = target: mH2A1.2 (Homo sapiens, UniProt O75367); conditions: splice-variant; ref 13c
[3] = target: mH2A1.1 (G224E) (Homo sapiens, UniProt O75367, G224E); conditions: point-mutant; ref 13c
mH2A1.1 (G224E), sequence (O75367 whole entry G224E, species assumed): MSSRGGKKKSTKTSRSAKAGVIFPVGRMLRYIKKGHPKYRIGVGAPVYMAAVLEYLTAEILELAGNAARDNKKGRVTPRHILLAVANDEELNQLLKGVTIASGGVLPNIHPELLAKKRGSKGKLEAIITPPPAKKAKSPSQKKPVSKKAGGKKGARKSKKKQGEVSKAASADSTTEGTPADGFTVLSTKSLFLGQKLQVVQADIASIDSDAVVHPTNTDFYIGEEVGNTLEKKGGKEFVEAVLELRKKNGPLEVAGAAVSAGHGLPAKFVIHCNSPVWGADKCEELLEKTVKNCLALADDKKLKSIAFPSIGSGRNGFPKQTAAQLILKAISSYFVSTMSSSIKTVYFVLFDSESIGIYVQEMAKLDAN

mH2A1.1, sequence (O75367 184-367 limits assumed, species assumed): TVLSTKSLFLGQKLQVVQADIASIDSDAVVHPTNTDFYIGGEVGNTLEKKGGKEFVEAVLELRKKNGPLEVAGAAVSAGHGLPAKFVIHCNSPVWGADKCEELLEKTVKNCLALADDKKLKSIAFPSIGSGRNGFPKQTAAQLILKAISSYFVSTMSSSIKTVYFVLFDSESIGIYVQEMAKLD
mH2A1.2, sequence (O75367 162-372 isoform O75367-1): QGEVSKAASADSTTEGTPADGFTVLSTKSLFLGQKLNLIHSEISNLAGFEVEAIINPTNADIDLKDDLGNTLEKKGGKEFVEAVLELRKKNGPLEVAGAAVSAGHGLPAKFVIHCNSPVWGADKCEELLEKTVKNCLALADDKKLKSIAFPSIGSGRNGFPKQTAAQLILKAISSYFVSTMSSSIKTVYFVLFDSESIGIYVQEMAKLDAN

affinity of free ADPR for mH2A1.1 [1]: modest, in the μM range | binding of ADPR by mH2A1.2 [2]: does not bind ADPR | binding of ADPR by mH2A1.1 (G224E) [3]: abolishes ADPR binding
SMILES: Nc1ncnc2c1ncn2[C@@H]1O[C@H](COP(=O)(O)OP(=O)(O)OC[C@H]2OC(O)[C@H](O)[C@@H]2O)[C@@H](O)[C@H]1O (stereo partly drawn) [ADPR, ADP-ribose]
